According to patent US20050009886A1, “1,4-Dihydropyridine derivative with a guaiacoxypropanolamine and/or phenoxypropanolamine moiety” (priority 1998, published 2005):

How the values were obtained:
[1] = target: T1, β-adrenoreceptor (β1) (Rattus norvegicus, UniProt P18090); experiment: Isolated left atrium, L-isoproterenol-induced contractility increase (pA2); design: species or system Wistar rat; details: for β1 Value of pA2 Left Atrium: vs L-isoproterenol, electrically stimulated
T1 construct: The right and left atria were then separated; from tissue; host or cells: isolated rat right atrium (spontaneously beating) and left atrium (electrically paced)
Description: The inspontaneously-beating left atrial tissue was obtained from rat's isolated right atrial tissue experiments. […] The contraction rate was 1 Hz and the resting tension 0.5 gm. After 60 minutes of equilibration, the following experiments were performed:
(a) Completion of cumulative concentration-response curve: similar to experimental method on isolated right atrium;
(b) Calculation of pA2 value: similar to calculation method on isolated right atrium.

[2] = test system: Calcium; experiment: Calcium antagonism (pKCa^−1, Table 2)
[3] = Heart rate and blood pressure in living rat; format: in vivo, Wistar rats
Source text: Male Wistar rats, weighing 200˜300 g were abdominal anaesthetized with pentobarbital sodium. Tracheal was cannulated to maintain normal respiration. Polyethylene tube was inserted into the left femoral vein to facilitate drug administration. A 3-way stopcock was used, with one end connected to a syringe for drug injection, while the other end was connected to the syringe filled with physiological saline. The latter was used to prevent residual drugs in the polyethylene tube after injection, which would affect experimental accuracy.
The right femoral artery was also inserted with polyethylene, and a 3-way stopcock was used too, where one end was connected to heparin solution to prevent embolism. The other end was connected to a Disposable Diaphragm Dome, TA1019, and linked to a transducer. Through an amplifier, a recorder recorded the overall and average arterial pressure; heart rate to evaluate the effect of drug on blood pressure and heart rate.

[4] = target: T2, lung β 2-receptor (Rattus norvegicus, UniProt P10608); format: binding, Wistar rat; details: 25° C., 60 minutes
T2 construct: The heart and lung of rat were removed and placed in cold Tris buffer; from tissue; host or cells: membrane preparation from rat lung

[5] = test system: A7r5 cells; details: 10^−8, 10^−7, 10^−6M for 5 minutes
[6] = test system: right atrium; details: 10^−7, 10^−6, and 10^−5M; CaCl2 3.0, 6.0, 9.0 mM
Description: The right atrium of the rats was allowed to equilibrate in Kreb's solution for at least 60 minutes. When the spontaneous beating rate had reached a certain stability, CaCl2 of different concentrations (3.0, 6.0, and 9.0 mM) were cumulatively administered, and the changes in the spontaneous beating of right atrium were observed. […] 30 minutes later, different concentrations (3.0, 6.0, and 9.0 mM) were cumulatively administered, and the changes in the spontaneous beating of right atrium were observed again.

[7] = target: T3, atrial β 1-receptor (Rattus norvegicus, UniProt P18090); format: binding, Wistar rat; details: 25° C., 60 minutes
T3 construct: The heart and lung of rat were removed and placed in cold Tris buffer; from tissue; host or cells: membrane preparation from rat atria

[8] = test system: thoracic aorta; experiment: Isolated thoracic aorta contraction caused by 75 mM KCl; design: species or system Wistar rat
Description: After sacrificing Wistar rat of weight between 300-500 gm, the thoracic aorta was immediately removed and placed in cold Kreb's solution. The fatty connecting tissue surrounding the vessel wall was removed and the thoracic aorta was cut into rings of length 5 mm. The two ends of each ring was pieced and fixed with “Z” shaped platinum wires. […] The sample was given 1 gm of tension and equilibrated for 60 minutes before the following experiments were carried out:
After thoracic aorta had reached equilibrium in the tissue trough, the normal Kreb's solution in the trough was replaced with 75 mM KCl solution to induce vasoconstriction. When the results had been recorded for at least 35 minutes, the aorta was repeatedly rinsed with normal Kreb's solution. After the aorta had re-equilibrated and at least rested for 60 minutes, different concentrations (10^−8, 10^−7, 10^−6, and 10^−5M) of compound 1 were separately added. 30 minutes later, 75 mM KCl was added again to induce vasoconstriction. This method was used to compare the differences in contraction induced by 75 mM KCl on thoracic aorta pre-treated and non-treated with compound 1.
0.1 μM of BayK8644 was first added into the tissue trough. 10 minutes later, 75 mM of concentrated Potassium solution was added to induce thoracic aorta contraction. When vasoconstriction had reached stability, different concentrations of (10^−8, 10^−7, 10^−6, and 10^−5M) compound 1 were separately added. The effects of aorta contraction induced by concentrated Potassium solution were observed.

[9] = target: T4, β2-adrenoceptor (Cavia porcellus, UniProt Q8K4Z4); experiment: Direct effect (intrinsic sympathomimetic activity) on reserpine pretreated isolated tracheal; design: species or system guinea pig
T4 construct: a portion of tracheal approximately 4 cm long was removed; from tissue; host or cells: isolated trachea of reserpine-pretreated guinea pigs
Description: 18˜24 hours before the experiment, 5 mg/kg of reserpine was injected via abdominal cavity to remove all endogenous catecholamines. Prior experiment, guinea pigs were sacrificed, the tracheal was immediately removed and placed in Kreb's solution aerated with air mixture and maintained at room temperature of 22˜25° C. […] Then the tissue was repeatedly washed with Kreb's solution.

[10] = test system: isolated atria; experiment: Direct effect (intrinsic sympathomimetic activity) on reserpine pretreated isolated atria; design: species or system Wistar rat
Description: Wistar rats of weight between 200˜300 gm were used. 18˜24 hours before the experiment, 5 mg/kg of reserpine was injected via abdominal cavity to remove all endogenous catecholamines. Prior experiment, Wistar rats were sacrificed, the heart was immediately removed and placed in Kreb's solution aerated with air mixture and maintained at room temperature. The right and left atria were carefully separated.

[11] = target: cerebral cortex calcium ion receptors; details: 25° C., 60 minutes
[12] = 1 mg/kg via femoral vein, anaesthetized rat
[13] = intravenous 0.1-2.0 mg/kg, normotensive rats

T1 sequence (P18090 whole entry): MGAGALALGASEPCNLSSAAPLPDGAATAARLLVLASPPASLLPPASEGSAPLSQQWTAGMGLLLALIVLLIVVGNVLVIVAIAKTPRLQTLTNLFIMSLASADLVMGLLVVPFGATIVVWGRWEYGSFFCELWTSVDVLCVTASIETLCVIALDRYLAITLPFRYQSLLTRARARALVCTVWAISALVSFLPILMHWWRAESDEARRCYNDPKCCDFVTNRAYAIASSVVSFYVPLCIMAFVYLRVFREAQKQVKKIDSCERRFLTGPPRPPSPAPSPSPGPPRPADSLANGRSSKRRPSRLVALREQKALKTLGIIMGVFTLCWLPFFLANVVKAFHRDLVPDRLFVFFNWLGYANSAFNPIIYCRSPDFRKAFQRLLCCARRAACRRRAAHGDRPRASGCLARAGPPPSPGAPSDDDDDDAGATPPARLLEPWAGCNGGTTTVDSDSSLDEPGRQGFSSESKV
T4 sequence (Q8K4Z4 whole entry): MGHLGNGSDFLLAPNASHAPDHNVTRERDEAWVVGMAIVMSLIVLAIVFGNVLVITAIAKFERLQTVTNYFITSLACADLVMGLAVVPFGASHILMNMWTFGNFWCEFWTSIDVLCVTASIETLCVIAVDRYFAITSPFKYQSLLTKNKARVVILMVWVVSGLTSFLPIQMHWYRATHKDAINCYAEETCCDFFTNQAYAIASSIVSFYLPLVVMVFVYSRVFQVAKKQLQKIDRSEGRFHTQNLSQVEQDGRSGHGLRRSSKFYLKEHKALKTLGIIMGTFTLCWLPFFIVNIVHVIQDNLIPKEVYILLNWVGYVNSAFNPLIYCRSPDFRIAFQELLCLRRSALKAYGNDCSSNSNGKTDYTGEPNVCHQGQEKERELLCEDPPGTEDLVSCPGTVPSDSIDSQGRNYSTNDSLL
T2 sequence (P10608 whole entry): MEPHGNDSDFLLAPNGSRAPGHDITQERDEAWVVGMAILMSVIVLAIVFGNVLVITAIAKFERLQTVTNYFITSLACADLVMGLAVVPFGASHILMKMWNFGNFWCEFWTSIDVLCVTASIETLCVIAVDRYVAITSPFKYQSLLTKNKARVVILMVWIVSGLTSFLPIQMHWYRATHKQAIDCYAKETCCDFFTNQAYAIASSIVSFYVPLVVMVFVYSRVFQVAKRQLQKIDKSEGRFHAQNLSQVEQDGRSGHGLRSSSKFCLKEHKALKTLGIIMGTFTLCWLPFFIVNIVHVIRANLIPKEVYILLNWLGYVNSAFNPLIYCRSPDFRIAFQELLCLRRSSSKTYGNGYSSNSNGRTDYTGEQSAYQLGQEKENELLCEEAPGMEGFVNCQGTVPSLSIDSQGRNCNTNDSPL
T3 sequence (P18090 whole entry): as the sequence (P18090 whole entry) above

COC(=O)C1=C(C)NC(C)=C(C(=O)OC)C1c1ccc(OCC(O)CNC(C)(C)C)c(OC)c1 (centres unmarked) [Compound 1]
block of heart contractility increment effect of L-isoproterenol ([1]; left atrium, 10^−6, 10^−5, and 10^−6 M as printed): could competitively block | β1 Left Atrium (Slope) ([1]; slope of Schild regression): (0.85 ± 0.02) | β1 Value of pA2 Left Atrium [1]: 6.91 ± 0.26 | β1 Value of pA2 Left Atrium ([1]; listed as compound 1): 6.91±0.26 | Calcium Antagonism PKCa^−1 [2]: 7.82 ± 0.49 | Lowering of Blood Pressure [3, 12]: 70 ± 3 mmHg | Reduction of Heart Rate [3, 12]: 30 ± 2 beats/min | effect on heart rate ([3]; intravenous 0.5 mg/kg): a decrease in heart rate | duration of blood pressure lowering effect [3, 13]: approximately 1 hour | effect on blood pressure and heart rate [3, 13]: continuous dose-dependent blood pressure lowering effect without increasing heart rate | [^3H] CGP-12177 (β2) pKi [4]: 6.20 ± 0.55 | calcium ion influx effect of BayK8644 ([5]; 10 μM BayK8644): significantly blocked | calcium ion influx effect of KCl ([5]; 50 mM KCl): significantly blocked | effect on increased atrial beating rate induced by CaCl2 [6]: blocked | [^3H] CGP-12177 (β1) pKi [7]: 6.61 ± 0.46 | effect on 75 mM KCl contracted thoracic aorta ([8]; 10^−8, 10^−7, 10^−6, and 10^−5 M): dose-dependant vasoconstriction | Aorta Relaxation ([8]; 10^−8M, 75 mM KCl contraction): 30 ± 3% | effect of 0.1 μM BayK8644 pre-treatment on the aorta effect ([8]; BayK8644 0.1 μM 10 minutes, then concentrated Potassium solution): would affect vasoconstriction function | tracheal relaxation after pretreatment with ICI118, 551 ([9]; ICI 118, 551 10^−8, 10^−9, 10^−10M for 30 minutes (nifedipine: 10^−8 M)): concentration-dependently shifting parallel to the right | direct tracheal relaxation effect ([9]; cumulative 10^−10˜3×10^−6 M, reserpine pretreated tracheal): dose-dependant tracheal relaxation effect | direct effect on right atrium beating rate and left atrium isometric contractions ([10]; cumulative administration, reserpine pretreated): could not increase the beating rate and isometric contractions | concentration with blocking effect on beating rate and isometric contractions ([10]; reserpine pretreated atria): ≥ 10^−5 M | [^3H]nitrendipine Ca^2+ PKi [11]: 7.86 ± 0.38
